Measured values published in patent publication US20260258035A1, “FIVE-MEMBERED AND SIX-MEMBERED NITROGEN-CONTAINING COMPOUND, AND INTERMEDIATE, PREPARATION METHOD AND USE THEREOF” (HANGZHOU SYNRX THERAPEUTICS BIOMEDICAL TECHNOLOGY CO., LTD., priority 2022, published 2026).
Like-named read-outs stand apart in the source and are kept apart here.

How the values were obtained:
HCC1806 = test: Cell viability assay (CellTiter-Glo); format: cell-based, Human; settings: HCC1806, 7 days, CellTiter-Glo, read-out: IC50 (nM) in cell viability assay
PARG = PARG (Homo sapiens, UniProt Q86W56); test: Biochemical assay (PARG, TFMU-ADPr substrate); settings: PARG, TFMU-ADPr substrate
PARG, sequence (Q86W56 whole entry): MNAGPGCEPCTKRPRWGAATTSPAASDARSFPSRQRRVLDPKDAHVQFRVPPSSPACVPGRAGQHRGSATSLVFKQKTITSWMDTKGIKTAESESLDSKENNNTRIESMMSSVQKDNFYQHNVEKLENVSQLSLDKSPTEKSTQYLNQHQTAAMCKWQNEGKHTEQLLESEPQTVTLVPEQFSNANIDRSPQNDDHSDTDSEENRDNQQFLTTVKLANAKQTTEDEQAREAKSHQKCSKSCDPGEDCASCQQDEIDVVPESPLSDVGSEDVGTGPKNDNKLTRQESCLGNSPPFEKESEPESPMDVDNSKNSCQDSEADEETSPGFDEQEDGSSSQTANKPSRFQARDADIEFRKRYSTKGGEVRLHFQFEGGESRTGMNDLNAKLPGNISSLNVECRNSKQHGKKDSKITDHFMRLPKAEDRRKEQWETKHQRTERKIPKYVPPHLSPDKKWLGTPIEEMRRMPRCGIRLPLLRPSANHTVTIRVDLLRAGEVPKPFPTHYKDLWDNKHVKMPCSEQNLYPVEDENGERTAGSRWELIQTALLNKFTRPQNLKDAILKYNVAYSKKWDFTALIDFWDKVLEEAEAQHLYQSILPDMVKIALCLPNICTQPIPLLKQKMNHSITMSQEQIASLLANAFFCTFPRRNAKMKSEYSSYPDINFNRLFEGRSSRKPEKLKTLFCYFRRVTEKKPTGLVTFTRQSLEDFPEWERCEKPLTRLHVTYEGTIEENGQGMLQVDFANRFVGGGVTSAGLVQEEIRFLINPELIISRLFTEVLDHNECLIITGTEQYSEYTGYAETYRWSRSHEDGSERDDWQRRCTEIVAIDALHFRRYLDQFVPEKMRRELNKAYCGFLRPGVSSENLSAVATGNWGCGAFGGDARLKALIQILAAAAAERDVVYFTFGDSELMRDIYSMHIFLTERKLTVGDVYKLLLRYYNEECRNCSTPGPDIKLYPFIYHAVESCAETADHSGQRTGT

Row | Compound | IC50 (HCC1806; Homo sapiens, HCC1806, 168 h) [nM] | IC50 (PARG) [nM] | IC50 (HCC1806) [nM]
1 | N#CC1(NS(=O)(=O)c2cc(N3CCN(C(=O)C4CC(N)C4)CC3)c3cnc(-c4nnc(C(F)(F)F)s4)n3c2)CC1 (stereo not shown) [Example 273, 8-(4-(3-aminocyclobutane-1-carbonyl)piperazin-1-yl)-N-(1-cyanocyclopropyl)-3-(5-(trifluoromethyl)-1,3,4-thiadiazol-2-yl)imidazo[1,5-a]pyridine-6-sulfonamide] | 5940 | 1.91 | 
2 | N#CC1(NS(=O)(=O)c2cc(N3CCN(C(=O)C4(N)CC4)CC3)c3cnc(-c4nnc(C(F)(F)F)s4)n3c2)CC1 [Example 274, 8-(4-(1-aminocyclopropane-1-carbonyl)piperazin-1-yl)-N-(1-cyanocyclopropyl)-3-(5-(trifluoromethyl)-1,3,4-thiadiazol-2-yl)imidazo[1,5-a]pyridine-6-sulfonamide] | 700 | 41.7 | 
3 | CNC1(C(=O)N2CCN(c3cc(S(=O)(=O)NC4(C#N)CC4)cn4c(-c5nnc(C(F)(F)F)s5)ncc34)CC2)CC1 [Example 275, N-(1-cyanocyclopropyl)-8-(4-(1-(methylamino)cyclopropane-1-carbonyl)piperazin-1-yl)-3-(5-(trifluoromethyl)-1,3,4-thiadiazol-2-yl)imidazo[1,5-a]pyridine-6-sulfonamide] | 472 | 22.9 | 
4 | N#CC1(NS(=O)(=O)c2cc(N3CCN(C(=O)CO)CC3)c3cnc(-c4nnc(C(F)(F)F)s4)n3c2)CC1 [Example 276, N-(1-cyanocyclopropyl)-8-(4-(2-hydroxyacetyl)piperazin-1-yl)-3-(5-(trifluoromethyl)-1,3,4-thiadiazol-2-yl)imidazo[1,5-a]pyridine-6-sulfonamide] | 1750 | 45.7 | 
5 | CC1(NS(=O)(=O)c2cc(N3CCN(C(=O)C4CNC4)CC3)c3cnc(-c4nnc(C(F)(F)F)s4)n3c2)CC1 [Example 277, 8-(4-(azetidine-3-carbonyl)piperazin-1-yl)-N-(1-methylcyclopropyl)-3-(5-(trifluoromethyl)-1,3,4-thiadiazol-2-yl)imidazo[1,5-a]pyridine-6-sulfonamide] | 4470 | 25.1 | 
6 | N#CC1(NS(=O)(=O)c2cc(N3CCN(C(=O)C4(F)CNC4)CC3)c3cnc(-c4nnc(C(F)(F)F)s4)n3c2)CC1 [Example 278, N-(1-cyanocyclopropyl)-8-(4-(3-fluoroazetidine-3-carbonyl)piperazin-1-yl)-3-(5-(trifluoromethyl)-1,3,4-thiadiazol-2-yl)imidazo[1,5-a]pyridine-6-sulfonamide] | 1980 | 40.7 | 
7 | N#CC1(NS(=O)(=O)c2cc(N3CCN(C(=O)[C@@H]4C[C@@H](O)CN4)CC3)c3cnc(-c4nnc(C(F)(F)F)s4)n3c2)CC1 [Example 279, N-(1-cyanocyclopropyl)-8-(4-((2S,4R)-4-hydroxypyrrolidine-2-carbonyl)piperazin-1-yl)-3-(5-(trifluoromethyl)-1,3,4-thiadiazol-2-yl)imidazo[1,5-a]pyridine-6-sulfonamide] | 29900 | 95.5 | 
8 | N#CC1(NS(=O)(=O)c2cc(N3CCN(C(=O)C4NCCS4)CC3)c3cnc(-c4nnc(C(F)(F)F)s4)n3c2)CC1 (stereo not shown) [Example 281, N-(1-cyanocyclopropyl)-8-(4-(thiazolidine-2-carbonyl)piperazin-1-yl)-3-(5-(trifluoromethyl)-1,3,4-thiadiazol-2-yl)imidazo[1,5-a]pyridine-6-sulfonamide] | 229 | 66.1 | 
9 | CC1(NS(=O)(=O)c2cc(N3CCN(C(=O)C(O)C(F)(F)F)CC3)c3cnc(-c4nnc(C(F)(F)F)s4)n3c2)CC1 (stereo not shown) [Example 282, N-(1-methylcyclopropyl)-8-(4-(3,3,3-trifluoro-2-hydroxypropanoyl)piperazin-1-yl)-3-(5-(trifluoromethyl)-1,3,4-thiadiazol-2-yl)imidazo[1,5-a]pyridine-6-sulfonamide] | 84.3 | 20 | 
10 | N#CC1(NS(=O)(=O)c2cc(N3CCN(C(=O)C4CC(O)C4)CC3)c3cnc(-c4nnc(C(F)(F)F)s4)n3c2)CC1 (stereo not shown) [Example 283, N-(1-cyanocyclopropyl)-8-(4-(3-hydroxycyclobutane-1-carbonyl)piperazin-1-yl)-3-(5-(trifluoromethyl)-1,3,4-thiadiazol-2-yl)imidazo[1,5-a]pyridine-6-sulfonamide] | 539 | 3.8 | 
11 | CC1(NS(=O)(=O)c2cc(N3CCN(C(=O)[C@H]4CCN4)CC3)c3cnc(-c4nnc(C(F)(F)F)s4)n3c2)CC1 [Example 286, (R)-8-(4-(azetidine-2-carbonyl)piperazin-1-yl)-N-(1-methylcyclopropyl)-3-(5-(trifluoromethyl)-1,3,4-thiadiazol-2-yl)imidazo[1,5-a]pyridine-6-sulfonamide] | 235 | 3.98 | 
12 | COC1(C(=O)N2CCN(c3cc(S(=O)(=O)NC4(C#N)CC4)cn4c(-c5nnc(C(F)F)s5)ncc34)CC2)CNC1 [Example 289, N-(1-cyanocyclopropyl)-3-(5-(difluoromethyl)-1,3,4-thiadiazol-2-yl)-8-(4-(3-methoxyazetidine-3-carbonyl)piperazin-1-yl)imidazo[1,5-a]pyridine-6-sulfonamide] | 6150 | 1.51 | 
13 | CO[C@H]1C[C@H](C(=O)N2CCN(c3cc(S(=O)(=O)NC4(C)CC4)cn4c(-c5nnc(C(F)(F)F)s5)ncc34)CC2)C1 [Example 290, 8-(4-((1r,3r)-3-methoxycyclobutane-1-carbonyl)piperazin-1-yl)-N-(1-methylcyclopropyl)-3-(5-(trifluoromethyl)-1,3,4-thiadiazol-2-yl)imidazo[1,5-a]pyridine-6-sulfonamide] | 151 | 14.5 | 
14 | CC1(NS(=O)(=O)c2cc(N3CCN(C(=O)C4(O)CC4)CC3)c3cnc(-c4nnc(C(F)(F)F)s4)n3c2)CC1 [Example 291, 8-(4-(1-hydroxycyclopropane-1-carbonyl)piperazin-1-yl)-N-(1-methylcyclopropyl)-3-(5-(trifluoromethyl)-1,3,4-thiadiazol-2-yl)imidazo[1,5-a]pyridine-6-sulfonamide] | 65 | 9.55 | 
15 | CC1(NS(=O)(=O)c2cc(N3CCN(C(=O)C4CCOCC4)CC3)c3cnc(-c4nnc(C(F)(F)F)s4)n3c2)CC1 [Example 292, N-(1-methylcyclopropyl)-8-(4-(tetrahydro-2H-pyran-4-carbonyl)piperazin-1-yl)-3-(5-(trifluoromethyl)-1,3,4-thiadiazol-2-yl)imidazo[1,5-a]pyridine-6-sulfonamide] | 40 | 4.57 | 
16 | CC1(NS(=O)(=O)c2cc(N3CCN(C(=O)C4CCOC4)CC3)c3cnc(-c4nnc(C(F)(F)F)s4)n3c2)CC1 (stereo not shown) [Example 293, N-(1-methylcyclopropyl)-8-(4-(tetrahydrofuran-3-carbonyl)piperazin-1-yl)-3-(5-(trifluoromethyl)-1,3,4-thiadiazol-2-yl)imidazo[1,5-a]pyridine-6-sulfonamide] | 97 | 9.12 | 
17 | CC(C)N1CC(C(=O)N2CCN(c3cc(S(=O)(=O)NC4(C#N)CC4)cn4c(-c5nnc(C(F)F)s5)ncc34)C[C@H]2C)C1 [Example 295, (R)-N-(1-cyanocyclopropyl)-3-(5-(difluoromethyl)-1,3,4-thiadiazol-2-yl)-8-(4-(1-isopropylazetidine-3-carbonyl)-3-methylpiperazin-1-yl)imidazo[1,5-a]pyridine-6-sulfonamide] | 2820 | 39.8 | 
18 | COC(C)(C)C(=O)N1CCN(c2cc(S(=O)(=O)NC3(C#N)CC3)cn3c(-c4nnc(C(F)(F)F)s4)ncc23)CC1 [Example 296, N-(1-cyanocyclopropyl)-8-(4-(2-methoxy-2-methylpropanoyl)piperazin-1-yl)-3-(5-(trifluoromethyl)-1,3,4-thiadiazol-2-yl)imidazo[1,5-a]pyridine-6-sulfonamide] | 38.7 | 3.02 | 
19 | N#CC1(NS(=O)(=O)c2cc(N3CCN(C(=O)C4C5COCC54)CC3)c3cnc(-c4nnc(C(F)(F)F)s4)n3c2)CC1 (stereo not shown) [Example 297, 8-(4-(3-oxabicyclo[3.1.0]hexane-6-carbonyl)piperazin-1-yl)-N-(1-cyanocyclopropyl)-3-(5-(trifluoromethyl)-1,3,4-thiadiazol-2-yl)imidazo[1,5-a]pyridine-6-sulfonamide] | 362 | 55 | 
20 | CC1(C(=O)N2CCN(c3cc(S(=O)(=O)NC4(C#N)CC4)cn4c(-c5nnc(C(F)(F)F)s5)ncc34)CC2)COC1 [Example 299, N-(1-cyanocyclopropyl)-8-(4-(3-methyloxetane-3-carbonyl)piperazin-1-yl)-3-(5-(trifluoromethyl)-1,3,4-thiadiazol-2-yl)imidazo[1,5-a]pyridine-6-sulfonamide] | 1030 | 24 | 
21 | N#CC1(NS(=O)(=O)c2cc(N3CCN(C(=O)C4CCO4)CC3)c3cnc(-c4nnc(C(F)(F)F)s4)n3c2)CC1 (stereo not shown) [Example 300, N-(1-cyanocyclopropyl)-8-(4-(oxetane-2-carbonyl)piperazin-1-yl)-3-(5-(trifluoromethyl)-1,3,4-thiadiazol-2-yl)imidazo[1,5-a]pyridine-6-sulfonamide] |  | 31.6 | 403
22 | N#CC1(NS(=O)(=O)c2cc(N3CCN(C(=O)[C@@H]4CCCO4)CC3)c3cnc(-c4nnc(C(F)(F)F)s4)n3c2)CC1 [Example 301, (S)-N-(1-cyanocyclopropyl)-8-(4-(tetrahydrofuran-2-carbonyl)piperazin-1-yl)-3-(5-(trifluoromethyl)-1,3,4-thiadiazol-2-yl)imidazo[1,5-a]pyridine-6-sulfonamide] | 436 | 50.1 | 
23 | C[C@@H]1CN(c2cc(S(=O)(=O)NC3(C#N)CC3)cn3c(-c4nnc(C(F)(F)F)s4)ncc23)CCN1C(=O)C1CCO1 (stereo partly drawn) [Example 302, N-(1-cyanocyclopropyl)-8-((3R)-3-methyl-4-(oxetane-2-carbonyl)piperazin-1-yl)-3-(5-(trifluoromethyl)-1,3,4-thiadiazol-2-yl)imidazo[1,5-a]pyridine-6-sulfonamide] | 329 | 15.4 | 
